Source: patent US20110319392A1, “Thiazole Sulfonamide And Oxazole Sulfonamide Kinase Inhibitors” (priority 2009, published 2011)
pIC50: −log10 of the molar value.

Tests used:
B-Raf = B-Raf (Homo sapiens, UniProt P15056); test: B-Raf Accelerated MEK ATPase assay (BRAMA), Method A or B; type: biochemical
Summary of the method: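 Activated Raf plus non-phosphorylated MEK drives MEK-mediated ATP hydrolysis; ADP formation coupled via pyruvate kinase/lactate dehydrogenase to NADH oxidation. Method A read kinetically; Method B used 150 nM final MEK and a single end-point read.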

SK-MEL-28 tumor cells = test: Cell growth inhibition assay (CellTiter-Glo), SK-MEL-28; type: cell-based, Human; settings: Homo sapiens, SK-MEL-28, 72 h; 3 days incubation
Summary of the method: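 Cells plated at 500 cells/well in their growth media, dosed next day with nine-step 1:3 compound dilutions (final DMSO 0.2%), then incubated 3 days at 37° C, 5% CO2. Total ATP read by CellTiter-Glo luminescence as a surrogate for cell number; IC50 interpolated from 4-parameter fit versus DMSO controls.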

[1] = Method B: final MEK 150 nM, single end point read

B-Raf, sequence (P15056 whole entry): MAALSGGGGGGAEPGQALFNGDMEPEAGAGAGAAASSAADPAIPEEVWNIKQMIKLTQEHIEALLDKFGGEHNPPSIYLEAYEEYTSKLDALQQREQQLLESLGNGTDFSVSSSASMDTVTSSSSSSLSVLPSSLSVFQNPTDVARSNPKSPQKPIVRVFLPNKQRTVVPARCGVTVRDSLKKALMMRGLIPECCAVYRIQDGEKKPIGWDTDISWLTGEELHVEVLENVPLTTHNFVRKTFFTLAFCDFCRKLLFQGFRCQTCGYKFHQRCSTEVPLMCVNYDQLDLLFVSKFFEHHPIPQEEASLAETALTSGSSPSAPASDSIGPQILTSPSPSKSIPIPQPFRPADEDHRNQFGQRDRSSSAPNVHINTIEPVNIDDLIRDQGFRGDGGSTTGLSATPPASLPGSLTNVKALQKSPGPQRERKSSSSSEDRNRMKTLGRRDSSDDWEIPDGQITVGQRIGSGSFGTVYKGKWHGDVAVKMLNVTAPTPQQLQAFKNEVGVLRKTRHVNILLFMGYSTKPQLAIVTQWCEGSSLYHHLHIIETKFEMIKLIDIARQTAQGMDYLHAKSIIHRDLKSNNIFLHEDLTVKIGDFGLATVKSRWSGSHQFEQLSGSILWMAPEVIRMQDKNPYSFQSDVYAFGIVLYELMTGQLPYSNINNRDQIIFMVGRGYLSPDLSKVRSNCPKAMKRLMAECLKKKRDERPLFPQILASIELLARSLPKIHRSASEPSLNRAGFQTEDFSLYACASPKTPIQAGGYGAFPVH

Structure (SMILES) | pIC50 (B-Raf; [1]) | pIC50 (SK-MEL-28 tumor cells) | pIC50 (B-Raf; Method A)
CCc1nc(-c2cccc(NS(=O)(=O)c3ccccc3)c2)c(-c2ccnc(Nc3ccc(N4CCN(C(C)=O)CC4)nc3)n2)s1 [Example 3, N-{3-[5-(2-{[6-(4-Acetyl-1-piperazinyl)-3-pyridinyl]amino}-4-pyrimidinyl)-2-ethyl-1,3-thiazol-4-yl]phenyl}benzenesulfonamide] | > 7.00 | > 7.00 | –
CCc1nc(-c2cccc(NS(=O)(=O)c3ccccc3)c2)c(-c2ccnc(Nc3ccc(N4CCOCC4)c(F)c3)n2)s1 [Example 4] | – | 6.00 to 7.00 | 6.00 to 7.00
CCc1nc(-c2cccc(NS(=O)(=O)c3ccccc3)c2)c(-c2ccnc(Nc3ccc(OC)c(N4CCN(CCS(C)(=O)=O)CC4)c3)n2)s1 [Example 5, N-[3-(2-Ethyl-5-{2-[(4-(methyloxy)-3-{4-[2-(methylsulfonyl)ethyl]-1-piperazinyl}phenyl)amino]-4-pyrimidinyl}-1,3-thiazol-4-yl)phenyl]benzenesulfonamide] | – | > 7.00 | > 7.00
CC(=O)N1CCc2cc(Nc3nccc(-c4sc(C(C)C)nc4-c4cccc(NS(=O)(=O)c5ccccc5)c4)n3)ccc21 [Example 71] | > 7.00 | > 7.00 | –
CC(C)c1nc(-c2cccc(NS(=O)(=O)c3ccccc3)c2)c(-c2ccnc(Nc3ccc(CC4CCN(CCS(C)(=O)=O)CC4)c(F)c3)n2)s1 [Example 72] | > 7.00 | 6.00 to 7.00 | –
CC(C)c1nc(-c2cccc(NS(=O)(=O)c3ccccc3)c2)c(-c2ccnc(Nc3ccc(F)c(N4CCN(CCS(C)(=O)=O)CC4)c3)n2)s1 [Example 73] | > 7.00 | > 7.00 | –
CC(C)c1nc(-c2cccc(NS(=O)(=O)c3ccccc3)c2)c(-c2ccnc(Nc3ccc(N4CCN(CCS(C)(=O)=O)CC4)c(F)c3F)n2)s1 [Example 74] | > 7.00 | 6.00 to 7.00 | –
CC(C)c1nc(-c2cccc(NS(=O)(=O)c3c(F)cccc3F)c2)c(-c2ccnc(Nc3ccc(N4CCN(C(C)C)CC4)cc3O)n2)s1 [Example 78] | > 7.00 | > 7.00 | –
COc1cc(N2CCN(CCF)CC2)ccc1Nc1nccc(-c2sc(C(C)C)nc2-c2cccc(NS(=O)(=O)c3c(F)cccc3F)c2)n1 [Example 79] | > 7.00 | 6.00 to 7.00 | –
CC(C)c1nc(-c2cccc(NS(=O)(=O)c3c(F)cccc3F)c2)c(-c2ccnc(Nc3ccc(N4CCN(CCO)CC4)nc3)n2)s1 [Example 80] | > 7.00 | > 7.00 | –
CC(C)c1nc(-c2cccc(NS(=O)(=O)c3c(F)cccc3F)c2)c(-c2ccnc(Nc3cccc(N4CCN(C)CC4)c3)n2)s1 [Example 81] | > 7.00 | > 7.00 | –
CC(C)c1nc(-c2cccc(NS(=O)(=O)c3c(F)cccc3F)c2)c(-c2ccnc(Nc3ccc(N4CCCNCC4)nc3)n2)s1 [Example 82] | > 7.00 | > 7.00 | –
CC(C)c1nc(-c2cc(F)cc(NS(=O)(=O)c3ccc(F)cc3)c2)c(-c2ccnc(Nc3ccc(N4CCOCC4)c(F)c3)n2)s1 [Example 83] | > 7.00 | 6.00 to 7.00 | –
CC(C)c1nc(-c2cc(F)cc(NS(=O)(=O)c3c(F)cccc3F)c2)c(-c2ccnc(Nc3ccc(N4CCOCC4)nc3)n2)s1 [Example 84] | > 7.00 | > 7.00 | –
CC(C)c1nc(-c2cc(F)cc(NS(=O)(=O)c3c(F)cccc3F)c2)c(-c2ccnc(Nc3ccc(N4CCOCC4)c(F)c3)n2)s1 [Example 85] | > 7.00 | > 7.00 | –
CC(C)c1nc(-c2cccc(NS(=O)(=O)c3c(F)cccc3F)c2)c(-c2ccnc(Nc3cc(F)c(N4CCN(CCS(C)(=O)=O)CC4)cc3F)n2)s1 [Example 87] | > 7.00 | > 7.00 | –
CC(C)c1nc(-c2cccc(NS(=O)(=O)c3c(F)cccc3F)c2)c(-c2ccnc(Nc3ccc(N4CCCN(CCS(C)(=O)=O)CC4)nc3)n2)s1 [Example 88] | > 7.00 | > 7.00 | –
CC(C)c1nc(-c2cccc(NS(=O)(=O)c3c(F)cccc3F)c2)c(-c2ccnc(Nc3ccc(N4CC[C@@H](O)C4)nc3)n2)s1 [Example 89] | > 7.00 | > 7.00 | –
Cc1cc(N2CCC(N3CCCCC3)CC2)ccc1Nc1nccc(-c2sc(C(C)C)nc2-c2cccc(NS(=O)(=O)c3c(F)cccc3F)c2)n1 [Example 91] | > 7.00 | > 7.00 | –
CC(C)c1nc(-c2cccc(NS(=O)(=O)c3ccccc3)c2)c(-c2ccnc(Nc3ccc(N4CCOCC4)cn3)n2)s1 [Example 92] | > 7.00 | 6.00 to 7.00 | –
C=C(C)c1nc(-c2cccc(NS(=O)(=O)c3c(F)cccc3F)c2)c(-c2ccnc(Nc3ccc(N4CCN(CCF)CC4)c(F)c3)n2)s1 [Example 93] | > 7.00 | 6.00 to 7.00 | –
CC(C)c1nc(-c2ccc(F)c(NS(=O)(=O)c3c(F)cccc3F)c2)c(-c2ccnc(Nc3ccc(N4CCN(CCS(C)(=O)=O)CC4)c(F)c3)n2)s1 [Example 95] | > 7.00 | > 7.00 | –
CC(=O)N1CCN(c2ccc(Nc3nccc(-c4sc(C(C)C)nc4-c4cccc(NS(=O)(=O)c5cc(F)ccc5F)c4)n3)cn2)CC1 [Example 96] | > 7.00 | > 7.00 | –
